Counter-ions that a name gives are not always drawn. Like-named read-outs stand apart in the source and are kept apart here.

The assay addresses T1, VAP-1 in abdominal fat of mice (Mus musculus, UniProt O70423).
T1 construct: abdominal fat was collected and homogenized; from tissue; host or cells: abdominal fat of BALBc mice (homogenate supernatant)
T1 sequence (O70423 1-765): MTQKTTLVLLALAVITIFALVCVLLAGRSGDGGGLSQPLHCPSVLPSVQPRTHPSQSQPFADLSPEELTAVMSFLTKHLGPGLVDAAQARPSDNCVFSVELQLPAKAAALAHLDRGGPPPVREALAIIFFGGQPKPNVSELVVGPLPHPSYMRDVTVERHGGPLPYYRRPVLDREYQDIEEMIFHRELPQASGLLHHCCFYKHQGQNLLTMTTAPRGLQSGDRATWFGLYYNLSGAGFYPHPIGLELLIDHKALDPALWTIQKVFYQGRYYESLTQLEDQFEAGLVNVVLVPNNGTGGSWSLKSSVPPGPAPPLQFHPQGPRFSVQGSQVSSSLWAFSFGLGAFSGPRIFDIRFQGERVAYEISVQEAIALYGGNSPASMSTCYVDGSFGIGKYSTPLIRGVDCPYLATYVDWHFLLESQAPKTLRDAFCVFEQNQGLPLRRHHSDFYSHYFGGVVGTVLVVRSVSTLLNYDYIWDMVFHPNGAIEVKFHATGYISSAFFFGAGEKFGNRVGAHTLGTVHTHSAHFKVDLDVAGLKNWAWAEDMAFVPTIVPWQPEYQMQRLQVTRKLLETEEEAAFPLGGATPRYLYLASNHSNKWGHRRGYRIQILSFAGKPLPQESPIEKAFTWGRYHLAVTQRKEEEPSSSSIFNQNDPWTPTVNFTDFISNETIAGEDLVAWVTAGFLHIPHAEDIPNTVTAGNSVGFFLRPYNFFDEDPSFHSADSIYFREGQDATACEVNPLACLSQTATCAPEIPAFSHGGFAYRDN
Briefly: Inhibition of VAP-1 enzymatic activity at different dose and time conditions (ex-vivo). It is filed as in vivo, BALBc mice. The note with it: for Inhibition rate against the enzymatic activity of VAP-1 in abdominal fat of mice: hydrochloride; for inhibition at 0.5 mg/kg / inhibition at 3 mg/kg: mouse, po, read-out: Inhibition rate against the enzymatic activity of VAP-1 in abdominal fat of mice. How it is done: Inhibition Experiment Against the Enzymatic Activity at Different Does and Time Conditions (ex-vivo)
Tissue homogenate buffer solution (20 mM HEPES, pH 7.2, 1 mM EDTA, 250 mM sucrose, PMSF 0.2 mM)
Reaction buffer solution: 50 mM PBS, pH 7.4
Test kit: Amplex® Red Monoamine Oxidase Assay, Manufacturer: ThermoFisher
BALBc mice were orally administrated with different doses (0.5 mg/kg, 3 mg/kg) of the test compound, and the vehicle group was used as the control group. Abdominal fat was collected at 6 hrs, 10 hrs, 24 hrs respectively, and homogenized with a pre-cooled homogenate buffer solution, and thereafter, the supernatant was collected and stored for use.
A test sample was diluted with the reaction buffer solution, and respectively added with the inhibition solution A 1 μM Clorgyline+1 μM pargylin, to inhibit the activities of MAO-A and MAO-B, and the inhibition solution B: 1 μM Clorgyline+1 μM Pargylin+1 μM Mofegiline as the Wank control, and after being incubated at room temperature, 500 μM benzylamine hydrochloride, 1 U/mL HRP and 200 μM Amplex Red reagent were added to start the reaction. By referring to the method in “Experiment of inhibiting the enzymatic activity of VAP-1”, the relative activities of each dose groups were calculated, wherein ratio of the fluorescent signal to reaction time in the linear range is the reaction rate, and the vehicle group is the positive control, thereby to study the inhibition of the compound against the enzymatic activity of VAP-1 in abdominal fat of mice.

Turning to `CC1(C)Cc2cc(OC/C(=C/F)CN)ccc2C(=O)N1` [HC38-E, (E)-6-((2-(aminomethyl)-3-fluoroallyl)oxy)-3,3-dimethyl-3,4-dihydroisoquinolin-1(2H)-one hydrochloride], the “Inhibition rate against the enzymatic activity of VAP-1 in abdominal fat of mice” value reads like this: (0.5 mg/kg oral, 6 hours) 95.8 ± 3.6%; (3.0 mg/kg oral, 10 hours) 95.3 ± 1.9%. Besides, the inhibition (in general, how much of the control response was suppressed) at 0.5 mg/kg (0.5 mg/kg oral, 6 hours) was ~95%; the inhibition at 0.5 mg/kg (0.5 mg/kg oral, 10 hours) worked out at 90.3 ± 3.2%; the inhibition at 0.5 mg/kg (0.5 mg/kg oral, 24 hours) amounted to 68.1 ± 7.4%. Also, the inhibition at 3 mg/kg is 96.4 ± 5.6% (3.0 mg/kg oral, 6 hours); ~95% (3.0 mg/kg oral, 10 hours); 78 ± 9.3% (3.0 mg/kg oral, 24 hours).

The values are drawn from patent publication US20200087248A1, “Fluoroallylamine Derivative And Use Thereof” (SICHUAN KELUN-BIOTECH BIOPHARMACEUTICAL CO., LTD., priority 2017, published 2020).
